In BindingDB's records for doi:10.1021/acsmedchemlett.0c00369 (Shenyang Pharmaceutical University, 2021):

Target: Histone deacetylase 2 (Homo sapiens, UniProt Q92769)
Assay: Inhibition of recombinant full length C-terminal FLAG-tagged human HDAC2 expressed in baculovirus infected Sf9 cells using Boc-Lys(Ac)-AMC as substrate preincubated for 15 mins followed by substrate addition and measured after 60 mins by fluorescence based assay

Sequence of Histone deacetylase 2 (Q92769 whole entry): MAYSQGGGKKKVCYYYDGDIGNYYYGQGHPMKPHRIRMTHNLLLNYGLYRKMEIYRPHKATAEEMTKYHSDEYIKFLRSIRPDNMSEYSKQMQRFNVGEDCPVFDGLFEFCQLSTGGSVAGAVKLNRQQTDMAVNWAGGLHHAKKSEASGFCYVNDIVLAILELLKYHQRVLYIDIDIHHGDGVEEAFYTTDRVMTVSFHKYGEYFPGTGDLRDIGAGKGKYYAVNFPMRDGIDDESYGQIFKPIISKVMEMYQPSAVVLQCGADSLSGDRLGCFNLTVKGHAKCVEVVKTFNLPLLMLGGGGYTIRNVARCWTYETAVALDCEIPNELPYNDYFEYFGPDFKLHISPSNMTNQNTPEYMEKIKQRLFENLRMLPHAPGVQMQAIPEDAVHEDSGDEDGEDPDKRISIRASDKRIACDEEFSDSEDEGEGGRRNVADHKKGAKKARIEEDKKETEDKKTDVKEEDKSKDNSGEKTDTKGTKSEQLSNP

IC50: 33 nM
Compound: O=NC(Cc1ccc(O)c(Br)c1)C(=O)NCCSSCCNC(=O)C(Cc1ccc(O)c(Br)c1)N=O (stereo unspecified) [3-(3-bromo-4-hydroxy-phenyl)-N-[2-(2-{3-(3-bromo-4-hydroxy-phenyl)-2-[hydroxyimino]-propionylamino}-ethyldisulfanyl)-ethyl]-2-[hydroxyimino]-propionamide]
